Laboratory results as given in ChEMBL document CHEMBL5252511 (J Med Chem, 2016).

Legend:
[1] = Permeability of compound at pH 5.5 by PAMPA assay; format: ADME; conditions: read-out: permeability
[2] = Drug exposure in brain of triple transgenic C57BL/6 mouse alzheimer disease model at 30 mg/kg,po and measured after 2 hrs; format: ADME, organism-based; conditions: read-out: Ct
[3] = Ratio of drug concentration in brain to plasma of triple transgenic C57BL/6 mouse alzheimer disease model at 30 mg/kg,po and measured after 2 hrs; format: ADME, organism-based
[4] = Permeability across basolateral to apical side in human Caco2 cells; format: ADME, cell-based; conditions: Caco-2, read-out: permeability
[5] = Permeability across apical to basolateral side in human Caco2 cells; format: ADME, cell-based; conditions: Caco-2, read-out: permeability
[6] = Permeability of compound at pH 7.4 by PAMPA assay; format: ADME; conditions: read-out: permeability
[7] = Drug exposure in plasma of triple transgenic C57BL/6 mouse alzheimer disease model at 30 mg/kg,po and measured after 2 hrs; format: ADME, organism-based

Row | Compound | Papp [1] | concentration at 2 h [2] | Kp at 2 h [3] | Papp B→A [4] | Papp A→B [5] | Papp [6] | concentration at 2 h [7]
1 | O=C(Nc1cnccc1-c1ccccc1)c1ccnc(NC(=O)C2CC2)c1 | 52.6 ×10⁻⁶ cm/s | 440 nM | 0.2 | 30.1 ×10⁻⁶ cm/s | 31.9 ×10⁻⁶ cm/s | 48.3 ×10⁻⁶ cm/s | 
2 | O=C(Nc1cnccc1-c1ccc(Cl)cc1)c1ccnc(NC(=O)C2CC2)c1 | 90.4 ×10⁻⁶ cm/s |  |  | 27.9 ×10⁻⁶ cm/s | 35.4 ×10⁻⁶ cm/s | 126 ×10⁻⁶ cm/s | 
3 | CCOc1ccncc1NC(=O)c1ccnc(NC(=O)C2CC2)c1 |  |  |  |  |  |  | 47 nM
